Like-named read-outs stand apart in the source and are kept apart here.
Tests used:
[1] = system: TNFα-FL/Gaussia Luciferase; test: Dox Induced TNFα-FL-Gluc Assay; assay type: cell-based; settings: for IC50: 24 hr Dox induction, 293FRT/TO cells, read-out: 24 hr Dox Inducible TNFaFLGluc 293FRT/TO: Mean IC50; for 24 hr Dox Inducible TNFaFLGluc 293FRT/TO: TNF/PD1: ratio of TNFaFLGluc IC50 to PD1ssGluc IC50
Summary of the method: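 Flp-In 293 T-REx cells stably carrying doxycycline-inducible full-length TNFα (aa 1-233) fused to Gaussia luciferase. Plated the day before, then treated with compound dilutions in doxycycline-containing medium at 37° C, 5% CO2.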

[2] = system: IL-2-FL/Gaussia Luciferase; test: Dox Induced IL2-FL-Gluc Assay; assay type: cell-based; settings: for IC50: 24 hr Dox induction, 293FRT/TO cells, read-out: 24 hr Dox Inducible IL2FLGluc 293FRT/TO: Mean IC50; for 24 hr Dox Inducible IL2FLGluc 293FRT/TO: IL2/PD1: ratio of IL2FLGluc IC50 to PD1ssGluc IC50
Summary of the method: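 Stable Flp-In 293 T-REx cells carrying doxycycline-inducible full-length IL-2 (aa 1-153) fused to Gaussia luciferase, plated the day before assay. Compound dilutions added in medium containing doxycycline, incubated at 37 °C, 5% CO2. Undefined stereocentres mean data refer to stereoisomer mixtures.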

[3] = Liver Microsome Stability Assay (human); settings: human liver microsomes, with NADPH, 1.0 uM compound
Procedure: (§1) Stability of a compound was assessed in the presence of liver microsomes from various sources—mouse, rat, monkey and human liver microsomes. 1.0 uM compound, 0.4% DMSO in 0.1 M Potassium Phosphate with 1.0 mg/mL liver microsomes, were incubated at 37° C. with or without 1 mM NADPH. The samples were quenched at 0, and 30 minutes.

[4] = system: PD1-ss+10aa/Gaussia Luciferase; test: Dox-Induced PD1-ss-Gluc Assay; assay type: cell-based; settings: 24 hr Dox induction, 293FRT/TO cells, read-out: 24 hr Dox Inducible PD1ssGluc 293FRT/TO: Mean IC50
Summary of the method: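 Gaussia luciferase fused downstream of the PD1 signal peptide plus 10 residues was expressed on doxycycline induction in stably transfected Flp-In 293 T-REx cells. Compounds were added with doxycycline and incubated at 37 °C, 5% CO2.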

[5] = system: multiple myeloma cell line U266B1; test: U266 Cell Viability Assay; assay type: cell-based, human; settings: Homo sapiens, U-266, 48 h, U266B1 cells, Celltiter-Glo
Summary of the method: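 U266B1 multiple myeloma cells in RPMI 1640/10% FBS were treated with compound dilutions for 48 h at 37 °C, 5% CO2. Viability was measured by CellTiter-Glo luminescence; compounds drawn without stereochemistry were tested as stereoisomer mixtures.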

[6] = system: multiple myeloma cell line NCI-H929; test: H929 Cell Viability Assay; assay type: cell-based, human; settings: Homo sapiens, NCI-H929, 48 h, NCI-H929 cells, Celltiter-Glo
Summary of the method: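 NCI-H929 cells in RPMI 1640 with 10% FBS were treated with compound dilutions for 48 h at 37° C, 5% CO2. Viability was read by CellTiter-Glo luminescence. Undefined stereocentres denote stereoisomer mixtures.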

[7] = Liver Microsome Stability Assay (mouse); settings: mouse liver microsomes, with NADPH, 1.0 uM compound
Procedure: as §1

[8] = system: HER3-ss+4aa/Gaussia Luciferase; test: Dox-Induced Her3-ss-Gluc Assay; assay type: cell-based; settings: 24 hr Dox induction, 293FRT/TO cells, read-out: 24 hr Dox Inducible Her3(ss + 4)Gluc 293FRT/TO: Mean IC50
Summary of the method: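 Stable Flp-In 293 T-REx cells carried a doxycycline-inducible HER3 signal sequence (+4 aa) fused to Gaussia luciferase. Cells were plated the day before the assay. Compound dilutions in DMSO/media containing doxycycline were then added, and plates were incubated at 37 °C, 5% CO2.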

[9] = Liver Microsome Stability Assay (monkey); settings: monkey liver microsomes, with NADPH, 1.0 uM compound
Procedure: as §1

[10] = Liver Microsome Stability Assay (rat); settings: rat liver microsomes, with NADPH, 1.0 uM compound
Procedure: as §1

[11] = '<=>' given where both are I.A.

IC50 [1]	IC50 [2]	Liver Microsome Stability (Multiple Species): Human - % Remaining after 30 min w/NADPH [3]	IC50 [4]	EC50 [5]	EC50 [6]	Liver Microsome Stability (Multiple Species): Mouse - % Remaining after 30 min w/NADPH [7]	IC50 [8]	Liver Microsome Stability (Multiple Species): Monkey - % Remaining after 30 min w/NADPH [9]	Liver Microsome Stability (Multiple Species): Rat - % Remaining after 30 min w/NADPH [10]	IC50 ([1]; mean)	IC50 ([2]; mean)	IC50 ([4]; mean)	IC50 ([8]; mean)	SMILES	24 hr Dox Inducible TNFaFLGluc 293FRT/TO: TNF/PD1 [1]	24 hr Dox Inducible IL2FLGluc 293FRT/TO: IL2/PD1 [2]	24 hr Dox Inducible TNFaFLGluc 293FRT/TO: TNF/PD1 [1, 11]	24 hr Dox Inducible IL2FLGluc 293FRT/TO: IL2/PD1 [2, 11]
524 nM	65.8 nM	0.87%	53.6 nM	> 25000 nM	1030 nM	1.29%	91.7 nM	0.98%	16.9%					CC(=O)N1CCC(Oc2cc(F)c(N3CCC[C@@H]3c3csc(NC(=O)c4cccn4Cc4ccnc(F)c4)n3)c(F)c2)CC1 [Compound A105, (R)-N-(4-(1-(4-((1-acetylpiperidin-4-yl)oxy)-2,6-difluorophenyl)pyrrolidin-2-yl)thiazol-2-yl)-1-((2-fluoropyridin-4-yl)methyl)-1H-pyrrole-2-carboxamide]	9.81	1.2		
301 nM	51 nM	2.64%	28.2 nM	> 25000 nM	938 nM	0.81%	33.4 nM	0.09%	8.86%					CC(=O)N(C)CCOc1ccc(N2CCC[C@@H]2c2csc(NC(=O)c3cccn3Cc3ccnc(F)c3)n2)cc1 [Compound A117, (R)-1-((2-fluoropyridin-4-yl)methyl)-N-(4-(1-(4-(2-(N-methylacetamido)ethoxy)phenyl)pyrrolidin-2-yl)thiazol-2-yl)-1H-pyrrole-2-carboxamide]	10.7	1.8		
		0.37%		> 25000 nM	> 25000 nM	40.4%		0.21%	14.9%	> 25000 nM	> 25000 nM	247 nM	> 25000 nM	Cc1c(/C=C/c2csc(NC(=O)c3cccn3Cc3ccnc(F)c3)n2)ncn1C(C)CO (centres unmarked) [Compound B118, (E)-1-((2-fluoropyridin-4-yl)methyl)-N-(4-(2-(1-(1-hydroxypropan-2-yl)-5-methyl-1H-imidazol-4-yl)vinyl)thiazol-2-yl)-1H-pyrrole-2-carboxamide]			>101	>100
1560 nM	349 nM	10.3%	115 nM	> 25000 nM	2960 nM	38.2%	273 nM	1.75%	34.1%					NC(=O)N1CCC(Oc2ccc(N3CCC[C@@H]3c3csc(NC(=O)c4cccn4Cc4ccnc(F)c4)n3)nc2)CC1 [Compound A156, (R)-4-((6-(2-(2-(1-((2-fluoropyridin-4-yl)methyl)-1H-pyrrole-2-carboxamido)thiazol-4-yl)pyrrolidin-1-yl)pyridin-3-yl)oxy)piperidine-1-carboxamide]	13.5	3		
> 25000 nM	1170 nM	0.87%	167 nM	> 25000 nM	22800 nM	10.8%	690 nM	0.54%	5.78%					CC(C)c1cc(/C=C/c2csc(NC(=O)c3cccn3Cc3ccnc(F)c3)n2)no1 [Compound B90, (E)-1-((2-fluoropyridin-4-yl)methyl)-N-(4-(2-(5-isopropylisoxazol-3-yl)vinyl)thiazol-2-yl)-1H-pyrrole-2-carboxamide]	>150	7		
		1.56%		> 25000 nM	> 25000 nM	37%		0.72%	51.2%	> 25000 nM	> 25000 nM	> 25000 nM	> 25000 nM	O=C(Nc1nc(/C=C/[C@H]2CCCCN2)cs1)c1cccn1Cc1ccncc1 [Compound E16, (R,E)-N-(4-(2-(piperidin-2-yl)vinyl)thiazol-2-yl)-1-(pyridin-4-ylmethyl)-1H-pyrrole-2-carboxamide]				1
180 nM	20.7 nM	8.26%	10.9 nM	> 25000 nM	447 nM	7.09%	17.5 nM	1.57%	9.82%					CC(=O)NCCOc1ccc(N2CCC[C@@H]2c2csc(NC(=O)c3cccn3Cc3ccnc(F)c3)n2)cc1 [Compound A121, (R)-N-(4-(1-(4-(2-acetamidoethoxy)phenyl)pyrrolidin-2-yl)thiazol-2-yl)-1-((2-fluoropyridin-4-yl)methyl)-1H-pyrrole-2-carboxamide]	16.5	1.9		
2650 nM	316 nM	23.9%	141 nM	6550 nM	3770 nM	72.3%	197 nM	37.8%	94.1%					C[C@@H](N)c1ccc(N2CCC[C@@H]2c2csc(NC(=O)c3cccn3Cc3ccnc(F)c3)n2)cc1 [Compound A72, N-(4-((R)-1-(4-((R)-1-aminoethyl)phenyl)pyrrolidin-2-yl)thiazol-2-yl)-1-((2-fluoropyridin-4-yl)methyl)-1H-pyrrole-2-carboxamide]	18.8	2.2		
> 25000 nM	9190 nM	0.68%	63.7 nM	> 25000 nM	24100 nM	4.32%	5560 nM	1.26%	0.28%					Cc1ocnc1/C=C/c1csc(NC(=O)c2cccn2Cc2ccncc2)n1 [Compound B33, (E)-N-(4-(2-(5-methyloxazol-4-yl)vinyl)thiazol-2-yl)-1-(pyridin-4-ylmethyl)-1H-pyrrole-2-carboxamide]	>392	140		

From US20230286973A1, “PROTEIN SECRETION INHIBITORS” (KEZAR LIFE SCIENCES, priority 2020, published 2023)
